Results as given in patent EP4744649A1, “SUSTAINED-RELEASE INJECTABLE COMPOSITION FOR TREATING OR PREVENTING NEUROLOGICAL DISORDERS, AND METHOD FOR PREPARING SAME” (Inventage Lab Inc., priority 2023, dated 2025).

Tests used:
[1] = tested on: PTZ-induced seizure rat model; assay: PTZ (pentylenetetrazole)-induced epileptic seizure model: seizure intensity, grade distribution, mortality; format: in vivo, rats; settings: for seizure-induced mortality: 10 animals; for seizure intensity: 60 mg/head IP on D1 and D14 (G2)
Method: In order to evaluate the seizure-suppressing effect of administration of the microparticles of the present invention in an epilepsy-induced model, administration groups were set up as follows.
G3 and G4 were administered to rats at different doses using the above-described Example 7.
(§1) After the completion of acclimatization, the rats were divided into groups. On day 1 (D1), the test substances G1 to G4 were administered intraperitoneally and subcutaneously, and 30 minutes later, PTZ (pentylenetetrazole, Sigma, USA) dissolved in 0.9% sterile saline was administered intraperitoneally at a dose of 37.5 mg/kg to induce epileptic seizures. In the normal group, only the same amount of saline was administered. Then, PTZ was repeatedly administered at time points D2, D3, D5, D7, D14, D21, and D28 to induce epileptic seizures. The intensity of the seizures was graded and evaluated for 30 minutes immediately after PTZ administration at each time point according to the following criteria: [Table 7]

[2] = Body weight change in the PTZ seizure study; format: in vivo, rats; settings: 60 mg/head IP (G2); difference not statistically significant
Method: as §1
During the test period, body weight continued to increase in all the groups without decrease.

What does the source list for `C=C(C)[C@@H]1CCC(C)=C[C@H]1c1c(O)cc(CCCCC)cc1O` [CBD solution, cannabidiol]?
seizure-induced mortality ([1]; 60 mg/head IP (G2), until week 3): no deaths occurred; seizure-induced mortality ([1]; 60 mg/head IP (G2), week 4): three animals died; individuals with severe seizures ([1]; 60 mg/head IP (G2), week 2, at the time of additional administration): 10%; individuals with grade-5 seizures ([1]; 60 mg/head IP (G2), week 4): more than half of individuals; seizure intensity ([1]; day 1, stages 0 to 6): 2.4 grade; seizure intensity ([1]; week 1): 3.9 grade; seizure intensity ([1]; week 2, after additional administration): 2.9 grade; seizure intensity ([1]; weeks 3 and 4): 4.9 grade; weight gain [2]: slightly smaller than that in the other groups
